The target of one assay is cMET (Homo sapiens, UniProt P08581). The experiment in a line: Evaluation of inhibitory activity against MET (TR-FRET kinase assay). It is filed as biochemical. The settings on record: cMET protein, TK peptide substrate. On the procedure: In addition, in order to measure the enzyme activity inhibition for cMET, the evaluation was performed in the same manner as the enzyme activity inhibition measurement experiment for RON.
Specifically, the compound was prepared to a concentration of 1 mM in 100% DMSO and was diluted 10 times in a stepwise manner through 3-fold dilution. The compound (2 ul) diluted in a stepwise manner was added to a 96-well-plate containing 48 ul of a 1× kinase reaction buffer (50 mM HEPES (pH 7.4), 0.05% BSA, 0.005% Tween-20, 1 mM DTT, 0.5 mM MnCl2, 20 mM MgCl2).
The cMET protein was diluted to a concentration of 263 nM in a cMET storage buffer (50 mM Tris-HCl (pH 7.5), 150 mM NaCl, 0.05% Brij35, 1 mM DTT, 10% Glycerol), and then diluted again to a concentration of 2 nM in a 1× kinase reaction buffer. As a substrate cocktail, a MET-specific substrate mixed solution (5 uM TK peptide, 10 mM ATP) was prepared at a concentration 2 times the final reaction concentration.
(§1) Thereafter, a 384-well-plate was prepared, and 2.5 μl of each of the diluted compounds of Examples was added to a corresponding well of experimental group wells, and 2.5 μl of a 4% DMSO solution was dispensed into high control wells and low control wells.
(§2) Thereafter, 2.5 μL of 2 nM cMET was dispensed into each of the high control wells and the experimental group wells, and 2.5 μL of the 1×kinase reaction buffer was added to the low control wells, and all the wells were centrifuged at room temperature for 40 seconds at 1,000 RPM, and then incubated at room temperature for 20-30 minutes. Then, 5 uL of the substrate cocktail (2×) was dispensed into each well, and all the wells were centrifuged at room temperature for 40 seconds at 1,000 RPM, and then incubated at room temperature for 60 minutes. Thereafter, 5 uL of 90 mM EDTA was added to each well to terminate the reaction, and all the wells were then incubated again at room temperature for 5 minutes. Thereafter, 5 uL of a 4× phosphotyrosine antibody (Perkin Elmer) containing europium was added to each well, and all the wells were then incubated at room temperature for 60 minutes. After the incubation, the 384-well-plate was read with the Vison plate reader. In this case, the excitation wavelength was 340 nm, and the emission wavelength was 620 nm and 665 nm. The IC50 value of each compound of Examples was derived using the GraphPd Prism7 program.

A further assay deals with RON (Homo sapiens, UniProt Q04912). The experiment in a line: Evaluation of inhibitory activity against RON (TR-FRET kinase assay). It is filed as biochemical. The settings on record: RON protein, ULight-labeled Poly GT substrate. The procedure: In order to measure the inhibitory activity of each of the compounds of Examples against RON, the IC50 of each of the compounds was measured using Time-resolved fluorescence energy transfer (TR-FRET).
RON, sequence (Q04912 25-1400, species assumed): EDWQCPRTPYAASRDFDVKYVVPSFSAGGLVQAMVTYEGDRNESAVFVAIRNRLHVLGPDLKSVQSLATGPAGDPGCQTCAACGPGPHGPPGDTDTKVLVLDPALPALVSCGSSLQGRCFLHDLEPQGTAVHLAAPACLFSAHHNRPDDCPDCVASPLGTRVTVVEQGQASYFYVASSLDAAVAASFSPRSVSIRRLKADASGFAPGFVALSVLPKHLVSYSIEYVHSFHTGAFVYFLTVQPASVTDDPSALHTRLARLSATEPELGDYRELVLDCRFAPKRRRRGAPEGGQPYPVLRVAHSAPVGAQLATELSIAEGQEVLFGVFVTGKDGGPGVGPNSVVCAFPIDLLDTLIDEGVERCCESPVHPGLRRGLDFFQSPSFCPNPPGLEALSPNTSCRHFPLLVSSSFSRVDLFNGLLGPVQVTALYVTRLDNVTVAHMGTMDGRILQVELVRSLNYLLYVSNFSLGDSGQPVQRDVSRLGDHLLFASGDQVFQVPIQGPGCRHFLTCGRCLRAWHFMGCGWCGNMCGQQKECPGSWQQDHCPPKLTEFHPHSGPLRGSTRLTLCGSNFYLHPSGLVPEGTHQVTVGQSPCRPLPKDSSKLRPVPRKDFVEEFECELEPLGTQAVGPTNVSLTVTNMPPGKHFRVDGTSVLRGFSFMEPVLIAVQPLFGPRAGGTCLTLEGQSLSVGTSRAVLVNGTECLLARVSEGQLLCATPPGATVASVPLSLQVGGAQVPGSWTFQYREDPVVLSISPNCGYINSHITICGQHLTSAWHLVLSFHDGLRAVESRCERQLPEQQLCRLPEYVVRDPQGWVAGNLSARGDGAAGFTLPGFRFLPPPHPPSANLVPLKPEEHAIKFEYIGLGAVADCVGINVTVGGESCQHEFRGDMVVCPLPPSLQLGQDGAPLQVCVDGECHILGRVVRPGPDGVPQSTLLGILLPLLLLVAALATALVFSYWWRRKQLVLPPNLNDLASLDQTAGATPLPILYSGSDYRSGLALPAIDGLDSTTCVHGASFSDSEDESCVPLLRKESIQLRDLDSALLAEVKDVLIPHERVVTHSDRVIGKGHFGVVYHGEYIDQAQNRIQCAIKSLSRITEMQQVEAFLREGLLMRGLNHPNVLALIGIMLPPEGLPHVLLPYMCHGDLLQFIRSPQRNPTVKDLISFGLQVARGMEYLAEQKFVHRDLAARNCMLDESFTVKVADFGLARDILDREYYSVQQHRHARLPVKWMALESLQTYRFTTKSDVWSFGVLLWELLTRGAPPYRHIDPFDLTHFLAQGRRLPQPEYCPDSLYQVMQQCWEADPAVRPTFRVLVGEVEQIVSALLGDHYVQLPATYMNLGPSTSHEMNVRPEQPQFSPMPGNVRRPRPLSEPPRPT
Specifically, the compound was prepared to a concentration of 1 mM in 100% DMSO and was diluted 10 times in a stepwise manner through 3-fold dilution. The compound (2 ul) diluted in a stepwise manner was added to a 96-well-plate containing 48 ul of a 1× kinase reaction buffer (50 mM HEPES (pH 7.4), 0.01% Tween-20, 5 mM DTT, 0.5 mM Na3VO4, 2 mM EGTA, 10 mM MgCl2).
The RON protein was diluted to a concentration of 49.3 nM in a RON storage buffer (50 mM Tris-HCl (pH 7.5), 150 mM NaCl, 0.5 mM EDTA, 0.02% Triton X-100), and then diluted again to a concentration of 0.4 nM in a 1×kinase reaction buffer. As a substrate cocktail, a RON-specific substrate mixed solution (40 uM ULight-labeled Poly GT, 100 nM ATP) was prepared at a concentration 2 times the final reaction concentration.
as §1
as §2, with “of 0.4” for “of 2”, “nM RON” for “nM cMET”, “the 1× kinase” for “the 1×kinase”, “of 30” for “of 90”

cMET, sequence (P08581 25-1390): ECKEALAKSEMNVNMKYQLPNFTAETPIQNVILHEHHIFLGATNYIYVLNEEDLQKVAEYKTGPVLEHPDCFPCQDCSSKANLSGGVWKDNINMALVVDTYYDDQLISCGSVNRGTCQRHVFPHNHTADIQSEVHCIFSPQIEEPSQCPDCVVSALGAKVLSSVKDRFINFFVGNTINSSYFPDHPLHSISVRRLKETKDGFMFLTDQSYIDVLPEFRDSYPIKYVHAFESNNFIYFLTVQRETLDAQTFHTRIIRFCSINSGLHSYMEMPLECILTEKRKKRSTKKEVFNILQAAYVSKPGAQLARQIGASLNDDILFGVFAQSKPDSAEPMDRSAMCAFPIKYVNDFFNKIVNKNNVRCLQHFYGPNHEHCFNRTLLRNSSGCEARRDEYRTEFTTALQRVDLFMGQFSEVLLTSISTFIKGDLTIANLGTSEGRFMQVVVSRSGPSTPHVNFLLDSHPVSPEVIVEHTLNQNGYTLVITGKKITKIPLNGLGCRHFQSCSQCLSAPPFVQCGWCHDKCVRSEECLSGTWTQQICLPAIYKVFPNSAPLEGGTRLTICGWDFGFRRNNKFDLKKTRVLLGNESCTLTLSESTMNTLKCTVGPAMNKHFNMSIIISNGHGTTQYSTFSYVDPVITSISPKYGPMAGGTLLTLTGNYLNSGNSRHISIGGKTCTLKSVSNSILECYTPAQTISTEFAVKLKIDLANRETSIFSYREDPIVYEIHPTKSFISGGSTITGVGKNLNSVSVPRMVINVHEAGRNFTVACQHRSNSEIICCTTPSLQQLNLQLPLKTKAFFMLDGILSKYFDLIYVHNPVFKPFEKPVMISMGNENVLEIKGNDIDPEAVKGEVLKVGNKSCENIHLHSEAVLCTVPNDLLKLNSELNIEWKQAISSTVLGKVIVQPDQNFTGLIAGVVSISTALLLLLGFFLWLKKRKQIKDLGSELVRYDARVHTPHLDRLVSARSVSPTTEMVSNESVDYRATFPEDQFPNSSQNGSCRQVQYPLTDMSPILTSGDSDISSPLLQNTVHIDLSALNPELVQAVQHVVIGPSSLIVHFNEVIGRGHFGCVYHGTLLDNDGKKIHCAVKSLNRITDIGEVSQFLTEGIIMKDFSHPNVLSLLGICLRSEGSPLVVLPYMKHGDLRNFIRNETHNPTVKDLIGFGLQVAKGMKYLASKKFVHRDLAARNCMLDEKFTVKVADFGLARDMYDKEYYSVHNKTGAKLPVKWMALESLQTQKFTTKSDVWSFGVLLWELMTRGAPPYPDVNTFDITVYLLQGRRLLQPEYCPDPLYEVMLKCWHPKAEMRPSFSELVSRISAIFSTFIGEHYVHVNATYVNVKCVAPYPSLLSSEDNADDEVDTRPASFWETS

Consider `Nc1ncnc(Oc2ccc(NC(=O)c3cnn(C4CCCCC4)c3C(F)(F)F)cc2F)c1Cl` [Example 51], for which the results for the half-inhibitory concentration (IC50) against cMET and at RON were > 5000 nM and 50 to 500 nM, respectively.

Take `Nc1ncnc(Oc2ccc(NC(=O)c3cnn(-c4ccccc4)c3-c3ccccc3)cc2F)c1Cl` [Example 59, N-[4-(6-amino-5-chloro-pyrimidin-4-yl)oxy-3-fluorophenyl]-1,5-diphenyl-pyrazole-4-carboxamide]: the IC50 was 500 to 5000 nM against cMET and 50 to 500 nM against RON.

As to `Nc1ncnc(Oc2ccc(NC(=O)c3ccn(-c4ccccc4)n3)cc2F)c1Cl` [Example 53, N-[4-(6-amino-5-chloro-pyrimidin-4-yl)oxy-3-fluorophenyl]-1-phenyl-pyrazole-3-carboxamide], the half-inhibitory concentration (IC50) at cMET is > 5000 nM; against RON, 500 to 5000 nM.

In the case of `Nc1nccc(Oc2ccc(NC(=O)c3cnn(-c4ccc(F)cc4)c3C(F)(F)F)cc2F)c1Cl` [Example 11, N-(4-((2-amino-3-chloropyridin-4-yl)oxy)-3-fluorophenyl)-1-(4-fluorophenyl)-5-(trifluoromethyl)-1H-pyrazole-4-carboxamide], the half-inhibitory concentration (IC50) was > 5000 nM on cMET and 500 to 5000 nM on RON.

Take `Cn1ncc(C(=O)Nc2ccc(Oc3ccnc(N)c3Cl)c(F)c2)c1C(F)F` [Example 9, N-(4-((2-amino-3-chloropyridin-4-yl)oxy)-3-fluorophenyl)-5-(difluoromethyl)-1-methyl-1H-pyrazole-4-carboxamide]: the IC50 was > 5000 nM at cMET and 500 to 5000 nM on RON.

Regarding `Cc1c(C(=O)Nc2ccc(Oc3ncnc(N)c3Cl)c(F)c2)nnn1-c1ccccc1F` [Example 56, N-[4-(6-amino-5-chloro-pyrimidin-4-yl)oxy-3-fluorophenyl]-1-(2-fluorophenyl)-5-methyl-triazole-4-carboxamide], the IC50 on cMET is > 5000 nM; against RON, 50 to 500 nM.

For `Nc1nccc(Oc2ccc(NC(=O)c3cnn(-c4ccccc4F)c3C(F)(F)F)cc2F)c1Cl` [Example 12, N-(4-((2-amino-3-chloropyridin-4-yl)oxy)-3-fluorophenyl)-1-(2-fluorophenyl)-5-(trifluoromethyl)-1H-pyrazole-4-carboxamide], the IC50 is 500 to 5000 nM against cMET and 50 to 500 nM on RON.

Regarding `Cc1c(C(=O)Nc2ccc(Oc3ncnc(N)c3Cl)c(F)c2)nnn1-c1ccccc1` [Example 55, N-[4-(6-amino-5-chloro-pyrimidin-4-yl)oxy-3-fluorophenyl]-5-methyl-1-phenyl-triazole-4-carboxamide], the IC50 against cMET and against RON was > 5000 nM throughout.

As to `Nc1ncnc(Oc2ccc(NC(=O)c3cnn(-c4ccccc4F)c3C(F)(F)F)cc2F)c1Cl` [Example 52, N-[4-(6-amino-5-chloro-pyrimidin-4-yl)oxy-3-fluorophenyl]-1-(2-fluorophenyl)-5-(trifluoromethyl)pyrazole-4-carboxamide], the half-inhibitory concentration (IC50) against cMET fell in the range of 500 to 5000 nM; on RON it was 50 to 500 nM.

For `Nc1nccc(Oc2ccc(NC(=O)c3cnn(-c4c(F)cccc4F)c3C(F)(F)F)cc2F)c1Cl` [Example 37, N-(4-((2-amino-3-chloropyridin-4-yl)oxy)-3-fluorophenyl)-1-(2,6-difluorophenyl)-5-(trifluoromethyl)-1H-pyrazole-4-carboxamide], the figures for the IC50 on cMET and against RON were 500 to 5000 nM and < 50 nM, respectively.

Regarding `CCOC(=O)N(c1c(Oc2ccc(NC(=O)c3cnn(-c4ccccc4)c3CC)cc2F)ccnc1N)C(C)C` [Example 35, Ethyl(2-amino-4-(4-(5-ethyl-1-phenyl-1H-pyrazole-4-carboxamido)-2-fluorophenoxy)pyridin-3-yl)(isopropyl)carbamate], the IC50 on cMET was > 5000 nM; at RON it was 500 to 5000 nM.

As to `Nc1nccc(Oc2ccc(NC(=O)c3cn(-c4ccccc4)nn3)cc2F)c1Cl` [Example 40, N-(4-((2-amino-3-chloropyridin-4-yl)oxy)-3-fluorophenyl)-1-phenyl-1H-1,2,3-triazole-4-carboxamide], the IC50 on cMET and on RON was > 5000 nM throughout.

For `Nc1nccc(Oc2ccc(NC(=O)c3ccn(-c4ccccc4)n3)cc2F)c1Cl` [Example 39, N-(4-((2-amino-3-chloropyridin-4-yl)oxy)-3-fluorophenyl)-1-phenyl-1H-pyrazole-3-carboxamide], the IC50 against cMET and on RON was 500 to 5000 nM throughout.

`O=C(Nc1ccc(Oc2ncnc(NC3CC3)c2Cl)c(F)c1)c1cnn(-c2ccccc2)c1C(F)(F)F` [Example 62, N-(4-((5-chloro-6-(cyclopropylamino)pyrimidin-4-yl)oxy)-3-fluorophenyl)-1-phenyl-5-(trifluoromethyl)-1H-pyrazole-4-carboxamide]: the IC50 on cMET and at RON was > 5000 nM in each case.

For `Nc1nccc(Oc2ccc(NC(=O)c3cnn(-c4ccccc4Cl)c3C(F)(F)F)cc2F)c1Cl` [Example 36, N-(4-((2-amino-3-chloropyridin-4-yl)oxy)-3-fluorophenyl)-1-(2-chlorophenyl)-5-(trifluoromethyl)-1H-pyrazole-4-carboxamide], the results for the concentration for half-maximal inhibition (IC50) at cMET and against RON were 500 to 5000 nM and 50 to 500 nM, respectively.

As for `Nc1ncnc(Oc2ccc(NC(=O)c3ncn(-c4ccccc4)c3C(F)(F)F)cc2F)c1Cl` [Example 63, N-[4-(6-amino-5-chloro-pyrimidin-4-yl)oxy-3-fluorophenyl]-1-phenyl-5-(trifluoromethyl)imidazole-4-carboxamide], the 50% inhibitory concentration (IC50) on cMET was > 5000 nM; against RON, 50 to 500 nM.

Regarding `Nc1nccc(Oc2ccc(NC(=O)c3cnn(-c4ccccc4)c3-c3ccccc3)cc2F)c1Cl` [Example 19, N-(4-((2-amino-3-chloropyridin-4-yl)oxy)-3-fluorophenyl)-1,5-diphenyl-1H-pyrazole-4-carboxamide], the IC50 fell in the range of 500 to 5000 nM against cMET and 50 to 500 nM at RON.

Turning to `Cc1c(C(=O)Nc2ccc(Oc3ccnc(N)c3Cl)c(F)c2)nnn1-c1ccccc1` [Example 41, N-(4-((2-amino-3-chloropyridin-4-yl)oxy)-3-fluorophenyl)-5-methyl-1-phenyl-1H-1,2,3-triazole-4-carboxamide], the results for the IC50 on cMET and against RON were > 5000 nM and 50 to 500 nM, respectively.

`Nc1cc(Oc2ccc(NC(=O)c3cnn(-c4ccccc4)c3C(F)(F)F)cc2F)ccn1` [Example 44, N-(4-((2-aminopyridin-4-yl)oxy)-3-fluorophenyl)-1-phenyl-5-(trifluoromethyl)-1H-pyrazole-4-carboxamide]: the values for the IC50 against cMET and against RON were > 5000 nM and 50 to 500 nM, respectively.

On to `Nc1nccc(Oc2ccc(NC(=O)c3cnn(-c4ccccc4)c3C(F)(F)F)cc2F)c1N` [Example 28], for which the IC50 against cMET was > 5000 nM; against RON it was 50 to 500 nM.

Consider `Nc1nccc(Oc2ccc(NC(=O)c3cnn(-c4ccccc4)c3C(F)(F)F)c(F)c2)c1Cl` [Example 45, N-(4-((2-amino-3-chloropyridin-4-yl)oxy)-2-fluorophenyl)-1-phenyl-5-(trifluoromethyl)-1H-pyrazole-4-carboxamide], for which the values for the IC50 against cMET and on RON were > 5000 nM and 50 to 500 nM, respectively.

Values taken from patent publication US20240316017A1, “NOVEL PYRIDINE DERIVATIVE COMPOUND AS RON INHIBITOR” (LG CHEM, LTD., priority 2021, published 2024).
